Source: patent US6376426B1, “Herbicidal 3-(heterocycl-1-yl)-uracils” (BASF Aktiengesellschaft, priority 1999, dated 2002)

Experiments:
Format in all cases: in vivo
Glycine max = assay: Pre-emergence herbicidal test, GLXMA; design: key to herbicidal effect (0-9 scale) GLXMA / herbicidal rating GLXMA: A rating 0 indicates growth as untreated control; a rating 9 indicates death; conditions: for herbicidal rating GLXMA: PRE, 0-9 scale, 21 days after spraying
Method: To evaluate their herbicidal activity, compounds according to the invention are tested using a representative range of plants:
The pre-emergence tests involve spraying a liquid formulation of the compound onto the soil in which the seeds of the plant species mentioned above has recently been sown.
The soil used in the tests is a prepared horticultural loam. The formulations used in the tests are prepared from solutions of the test compounds in acetone containing 0.4% by weight of an alkylphenol/ethylene oxide condensate available under the trade mark TRITON X-155. […] In these tests untreated sown soil are used as controls.
The herbicidal effects of the test compounds are assessed visually twenty-one days after spraying the foliage and the soil and are recorded on a 0-9 scale. A rating 0 indicates growth as untreated control, a rating 9 indicates death. An increase of 1 unit on the linear scale approximates to a 10% increase in the level of effect.

Setaria viridis [1] = assay: Pre-emergence herbicidal test, SETVI; design: key to herbicidal effect (0-9 scale) SETVI / herbicidal rating SETVI: A rating 0 indicates growth as untreated control; a rating 9 indicates death; conditions: for herbicidal rating SETVI: PRE, 0-9 scale, 21 days after spraying
Ipomoea hederacea = assay: Pre-emergence herbicidal test, IPOHE; design: key: A rating 0 indicates growth as untreated control; a rating 9 indicates death; conditions: 0-9 scale, 21 days after spraying
Abutilon theophrasti = assay: Pre-emergence herbicidal test, ABUTH; design: key to herbicidal effect (0-9 scale) ABUTH / herbicidal rating ABUTH: A rating 0 indicates growth as untreated control; a rating 9 indicates death; conditions: for herbicidal rating ABUTH: PRE, 0-9 scale, 21 days after spraying
Stellaria media = assay: Pre-emergence herbicidal test, STEME; design: key to herbicidal effect (0-9 scale) STEME / herbicidal rating STEME: A rating 0 indicates growth as untreated control; a rating 9 indicates death; conditions: for herbicidal rating STEME: PRE, 0-9 scale, 21 days after spraying
Setaria viridis [2] = assay: Post-emergence herbicidal test, SETVI; design: key to herbicidal effect (0-9 scale) SETVI / herbicidal rating SETVI: A rating 0 indicates growth as untreated control; a rating 9 indicates death; conditions: POST, 0-9 scale, 21 days after spraying
Outline: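 Herbicidal effect is recorded on a linear 0-9 scale, where 0 means growth like untreated control and 9 means death, with one unit approximating 10% more effect.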

SMILES: Cn1c(C(F)(F)F)cc(=O)n(-n2ccc3c(Cl)cccc32)c1=O [Example 169, 3-(4-Chloro-indol-1-yl)-1-methyl-6-trifluoromethylpyrimidine-2,4-dione]
- herbicidal rating GLXMA (Glycine max; 12.5 g/ha): 0
- herbicidal rating GLXMA (Glycine max; 25 g/ha): 0
- herbicidal rating GLXMA (Glycine max; 100 g/ha): 3
- herbicidal rating GLXMA (Glycine max; 400 g/ha): 5
- selectivity in soy beans (Glycine max; pre-emergence, 25 g/ha): Surprisingly good selectivity
- herbicidal rating SETVI (Setaria viridis [1]; 12.5 g/ha): 8
- herbicidal rating SETVI (Setaria viridis [1]; 25 g/ha): 9
- herbicidal rating SETVI (Setaria viridis [1]; 100 g/ha): 9
- herbicidal rating SETVI (Setaria viridis [1]; 400 g/ha): 9
- control of Setaria (Setaria viridis [1]; pre-emergence, 25 g/ha): good control
- herbicidal rating IPOHE (Ipomoea hederacea; 12.5 g/ha): 2
- herbicidal rating IPOHE (Ipomoea hederacea; 25 g/ha): 4
- herbicidal rating IPOHE (Ipomoea hederacea; 100 g/ha): 8
- herbicidal rating IPOHE (Ipomoea hederacea; 400 g/ha): 9
- herbicidal rating ABUTH (Abutilon theophrasti; 12.5 g/ha): 5
- herbicidal rating ABUTH (Abutilon theophrasti; 25 g/ha): 9
- herbicidal rating ABUTH (Abutilon theophrasti; 100 g/ha): 9
- herbicidal rating ABUTH (Abutilon theophrasti; 400 g/ha): 9
- control of Abutilon (Abutilon theophrasti; pre-emergence, 25 g/ha): good control
- herbicidal rating STEME (Stellaria media; 12.5 g/ha): 6
- herbicidal rating STEME (Stellaria media; 25 g/ha): 8
- herbicidal rating STEME (Stellaria media; 100 g/ha): 9
- herbicidal rating STEME (Stellaria media; 400 g/ha): 9
- control of Stellaria (Stellaria media; pre-emergence, 25 g/ha): good control
- herbicidal rating SETVI (Setaria viridis [2]; 25 g/ha): 6
- herbicidal rating SETVI (Setaria viridis [2]; 100 g/ha): 9
- herbicidal rating SETVI (Setaria viridis [2]; 400 g/ha): 9
